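Briefly, cells in 96-well plates were exposed to five compound concentrations for 48 h, and endpoints were estimated by linear interpolation. TGI: total growth inhibition.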
Tests used:
Experiment in all cases: inhibition of tumour cell growth, NCI panel, 48 h
A549 NSCLC = test system: A549 NSCLC
OVCAR-5 ovarian = test system: OVCAR-5 ovarian
OVCAR-8 ovarian = test system: OVCAR-8 ovarian
SF-268 CNS = test system: SF-268 CNS
SF-539 CNS = test system: SF-539 CNS
HL-60(TB) leukemia = test system: HL-60(TB) leukemia

Row | Structure (SMILES) | TGI (A549 NSCLC) [µM] | TGI (OVCAR-5 ovarian) [µM] | TGI (OVCAR-8 ovarian) [µM] | TGI (SF-268 CNS) [µM] | TGI (SF-539 CNS) [µM] | TGI (HL-60(TB) leukemia) [µM]
1 | CC(=O)OCC(OC(C)=O)C(OC(C)=O)C(C=NN(C(C)=O)S(=O)(=O)c1ccc(/C=C2\NC(=O)NC2=O)cc1)OC(C)=O (stereo not drawn) | > 100 | > 100 | > 100 | > 100 | > 100 | 
2 | CC1C(c2ccccc2)OP(=O)(OC(C#N)c2ccccc2)N1C (stereo not drawn) | > 100 | > 100 | > 100 | > 100 | > 100 | > 100
3 | Fc1ccc2nc3n(c2c1)C(c1c(F)cccc1F)SC3 (stereo not drawn) | > 100 | > 100 | > 100 | > 100 | > 100 | 53
4 | COC(=O)C1CCC(=O)N1CN(C(C)=O)c1ccccc1 (stereo not drawn) | > 100 | > 100 | > 100 | > 100 | > 100 | > 100
5 | COc1ccccc1NC(=O)/C(Cc1nc2ccc([N+](=O)[O-])cc2[nH]c1=O)=N\NC(=O)C[N+](C)(C)C | > 100 | > 100 | > 100 | > 100 | > 100 | 93.1
6 | COc1cc2cc(C(=O)N3CC(CCl)c4ccc(O)cc43)[nH]c2c(OC)c1OC (stereo not drawn) | 1.25 | 0.765 | 0.0253 | 0.145 | 0.00881 | 
7 | CCCCCC/C=C\CCCCCCCCCc1cccc(O)c1C(=O)O | > 100 | > 100 | > 100 | > 100 | > 100 | > 100
8 | CCOC(=O)/C(C(=S)Nc1ccccc1)=C(/N)N1CCCC1 | > 100 | > 100 | > 100 | > 100 | > 100 | > 100
9 | CC1(CCC2C=CCC2)CCCNC1=S (stereo not drawn) | > 10 | > 10 | > 10 | > 10 | > 10 | > 10
10 | COc1cc2c(c(OC)c1OC)C(=O)[C@H](O)[C@H]2NC(N)=O | > 100 | > 100 | > 100 | > 100 | > 100 | > 100
11 | C=Cc1c(C)c(OC)cc2c1Oc1ccc(OC)c(C)c1CC2 | > 100 | > 100 | > 100 | > 100 | > 100 | > 100
12 | C=CCOC(=O)/C(=C\c1ccc(OC)c(OC)c1)c1ccc(OC)c(OC)c1 | > 100 | > 100 | > 100 | > 100 | > 100 | 40.3
13 | CCC1(CC)CC(=NNS(=O)(=O)c2ccc(C)cc2)C1 | > 100 | > 100 | > 100 | > 100 | > 100 | > 100
14 | NNC(=O)c1ccc(-n2nnc(C(=O)NN)c2C(=O)NN)cc1 | > 100 | > 100 | > 100 |  |  | > 100
15 | O=C1C2CC=CCC2C(=O)N1n1c(-c2ccccc2)n[nH]c1=O (stereo not drawn) | > 100 | > 100 | > 100 | > 100 | > 100 | 
16 | COC(=O)c1c2n(c3ccccc13)C[C@H]1OC(C)(C)O[C@@H]21 | > 100 | > 100 | > 100 | > 100 | > 100 | > 100
17 | N#CC(C#N)=Cc1ccc2c(c1)OC(Cl)O2 (stereo not drawn) | > 100 | 37.1 | > 100 | 66.4 | 38.6 | 44.1
18 | COc1cc(/C=C2/CCS(=O)(=O)c3ccc(C)cc3C2=O)cc(OC)c1OC | > 42 | 25.4 | 11.5 | > 49.2 | 7.05 | 
19 | CC1CC[C@@H](C(C)C)[C@H](Oc2nnc(C3OC(CO)C(O)C3O)o2)C1 (stereo partly drawn) | > 100 | > 100 | > 100 | > 100 | > 100 | > 100
20 | COc1ccc(-c2c(N)n(-c3nc4ccccc4s3)c(=O)c3cc([N+](=O)[O-])ccc23)cc1 | 23.3 | 56.7 | 23.2 | 56.6 | 19.6 | > 100
21 | CNC(=O)N1CN(c2ccccc2)C2(CCN(CCCC(=O)c3ccc(F)cc3)CC2)C1=O | > 100 | 29 | > 100 | > 100 | 34 | 37.8
22 | C1=NCCNCCN=Cc2ccc(cc2)OCc2cccc(n2)COc2ccc1cc2 | > 100 | > 100 | > 100 | 83.9 | > 100 | > 100

Row | Structure (SMILES) | TGI (A549 NSCLC) [µM] | TGI (OVCAR-5 ovarian) [µM] | TGI (OVCAR-8 ovarian) [µM] | TGI (SF-268 CNS) [µM] | TGI (SF-539 CNS) [µM] | TGI (HL-60(TB) leukemia) [µM]
23 | N#C/C(=C\c1ccccc1)C(=O)Nc1nnc(-c2ccccc2)o1 | > 100 | > 100 | > 100 | > 100 |  | 40.9
24 | CC12Nc3ccccc3N1C(=O)c1ccccc12 (stereo not drawn) | > 100 | > 100 | > 100 | > 100 | > 100 | > 100
25 | O=c1oc2ccccc2c(Nc2ccc3c(c2)S(=O)(=O)c2ccccc2O3)c1[N+](=O)[O-] | > 100 | > 100 | 78.4 | > 100 | 65.2 | 59.2
26 | Cc1ccc(N2C(=O)C3c4[nH]c5ccccc5c4C4CCC(C(C)(C)C)CC4C3C2=O)cc1 (stereo not drawn) | 23.1 | 39.3 | 20.9 | 18.9 |  | > 74.9
27 | O=C(O[C@H]1[C@@H](O)[C@H](n2cnc3c(Cl)ncnc32)O[C@@H]1COC(c1ccccc1)(c1ccccc1)c1ccccc1)c1ccccc1 | > 100 | > 100 | > 100 | 61.3 | 47.3 | 40.7
28 | CN(C)c1ccc(N=Nc2ccc3nc[nH]c3c2)cc1 | > 100 | 70.4 | > 100 | 54 | 36.9 | > 100
29 | CN(C(=O)Cc1cc(Cl)c(Cl)cc1N=C=S)[C@H]1CCCC[C@@H]1N1CCCC1 | 30.6 | 31.7 | 28.8 | 31.4 | 46 | 23.8
30 | O=C(NCc1cccnc1)NCc1cccnc1 | > 100 | > 100 | > 100 | > 100 | > 100 | > 100
31 | CC1(C)CC(=O)c2c(nc3ccc4ccccc4c3c2-c2ccc(NC(=O)CCCC(=O)Nc3ccc(-c4c5c(nc6ccc7ccccc7c46)CC(C)(C)CC5=O)cc3)cc2)C1 | > 100 | > 100 | > 100 | > 100 | > 100 | > 100
32 | Cc1cc(C)c(C2=NOC(c3ccccc3)(c3cc(=O)n(-c4ccccc4)s3)O2)c(C)c1 (stereo not drawn) | > 100 | 40.9 | 36.5 | > 100 |  | > 100
33 | COc1ccc(NS(=O)CCCc2ccccc2)cc1 (stereo not drawn) | > 100 | > 100 | > 100 | > 100 | > 100 | > 100
34 | C/C(=N\Nc1nc2ccccc2s1)c1ncccn1 | > 20 | 22.7 | 0.0505 | 5.12 | 20 | > 100
35 | O=C(CN1CCNCCN(CC(=O)N2CCCCC2)CCNCC1)N1CCCCC1 | > 100 | > 100 | > 100 |  | > 100 | 69.4
36 | Cc1c(/C=N/NC(=S)Nc2ccccc2Cl)c(=O)n(-c2ccccc2)n1C | > 100 | > 100 | 84.1 | > 100 | > 100 | > 100
37 | COc1cccc(/C=C2/Sc3scc(-c4ccccc4)[n+]3C2=O)c1O | > 100 | > 100 | 35.4 | > 100 | 47.6 | 39.6
38 | COc1ccc(NC(=O)CC(=O)N2N=C(C)C(N=Nc3ccc(S(=O)(=O)c4ccc(N=NC5C(=O)N(C(=O)CC(=O)Nc6ccc(OC)cc6)N=C5C)cc4)cc3)C2=O)cc1 (stereo not drawn) | > 100 |  | > 100 | > 100 | > 100 | > 100
39 | C#CCOCC12C=CC(O1)C1C(=O)N(C)C(=O)C12 (stereo not drawn) | > 100 | > 100 | > 100 | > 100 | > 100 | > 100
40 | CN(C)CCNC(=O)c1cccc2c(NCC(=O)O)c3ccccc3nc12 | 53.5 | > 100 | 38.5 | 33.4 |  | > 100
41 | O=C(c1ccccc1)c1ccc(COc2ccc(C(c3c(O)c4ccccc4oc3=O)c3c(O)c4ccccc4oc3=O)cc2)cc1 | 65.2 | 38.9 | 37.2 | > 100 | 46.4 | 
42 | COCn1c2ccc(OC(C)=O)cc2c2c(=O)oc(N(C)C)nc21 | > 100 | > 100 | > 100 |  | > 100 | > 100
43 | COc1ccc(N2C(=O)C3c4[nH]c5ccc(C)cc5c4C4CCC(C)CC4C3C2=O)cc1 (stereo not drawn) | > 100 | > 100 | > 100 | > 100 | > 100 | 

— PubChem BioAssay (NCI)
